Measured values as given in the supplement of paper PMC4862054.

What was measured:
Assay in all cases: normalised viability (% of control), CellTiter-Blue; higher = more viable cells (about 100 = DMSO control)
Conditions in all cases: incubation time: 72 h
CAL-51 = system: CAL-51
Method: (§1)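 DSRT, CellTiter-Blue viability, 72 h incubation. Signal is normalised to DMSO and benzethonium chloride controls. Value is the normalised response at dose 9.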

DU-4475 = system: DU-4475
Method: as §1

CAL-85-1 = system: CAL-85-1
Method: as §1

MDA-MB-453 = system: MDA-MB-453
Method: as §1

HDQ-P1 = system: HDQ-P1
Method: as §1

CAL-148 = system: CAL-148
Method: as §1

Compound | normalised viability (CAL-51) | normalised viability (DU-4475) | normalised viability (CAL-85-1) | normalised viability (MDA-MB-453) | normalised viability (HDQ-P1) | normalised viability (CAL-148)
C[C@]12CC[C@@H]3c4ccc(OC(=O)N(CCCl)CCCl)cc4CC[C@H]3[C@@H]1CC[C@@H]2O [Estramustine] (990 nM) | 84% | 89.9% | 110% | 101% | 99.5% | 111%
CC(=O)c1c(C)c2cnc(Nc3ccc(N4CCNCC4)cn3)nc2n(C2CCCC2)c1=O (10000 nM) | 50.8% | 85.9% | 78.2% | 61.1% | 93.5% | 87.6%
C[C@]1(O)C[C@@H](c2nc(-c3ccc4ccc(-c5ccccc5)nc4c3)c3c(N)nccn32)C1 [OSI-906] (10000 nM) | 81% | 92.6% | 67.4% | 65.9% | 32.4% | 118%
COc1cc(F)c(F)c(Nc2ccc(I)cc2F)c1NS(=O)(=O)C1(C[C@H](O)CO)CC1 [RDEA119] (10000 nM) | 60.4% | 0.93% | 29.9% | 36.1% | 51.1% | 71.5%
